Assay results from patent US12215112B2, “CD151 inhibitors” (ESFAM BIOTECH PTY LTD, priority 2020, dated 2025).

The compounds below were run on PC3 cells (assay: xCELLigence RTCA real-time cell invasion assay (CIM plate, Matrigel) on PC3 prostate cancer cells). Conditions: Homo sapiens, PC-3, compound 25 uM to 1 uM, cell index monitored for 72 hours, four-parameter dose-response curve, read-out: IC50, Effect of compounds on the invention on prostate cancer cells.
Format: cell-based
How it was run: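 PC3 invasion through 5% Matrigel-coated CIM-plate upper chambers was tracked as impedance cell index over 72 h. Compound at 25–1 µM was present in both chambers, with 3×10^4 cells seeded in serum-free RPMI. IC50 came from a four-parameter fit, and IC90 was derived from IC50 and the Hill slope.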

IC50 [µM] | Structure (SMILES)
5.76 | Cc1c(C(=O)Nc2cccc(O)c2)nn2c(-c3cn[nH]c3)cc(N(C)Cc3ccccc3)nc12 [Compound 68, 5-(benzyl(methyl)amino)-N-(3-hydroxyphenyl)-3-methyl-7-(1H-pyrazol-4-yl)pyrazolo[1,5-a]pyrimidine-2-carboxamide]
10.8 | CN(Cc1cccc(Cl)c1)c1cc(-c2cn[nH]c2)n2nc(C(=O)Nc3ccc(Cl)cc3)cc2n1 [Compound 45, 5-((3-chlorobenzyl)(methyl)amino)-N-(4-chlorophenyl)-7-(1H-pyrazol-4-yl)pyrazolo[1,5-a]pyrimidine-2-carboxamide]
3.15 | CC(C)c1c(C(=O)Nc2ccc(OC3CCOCC3)cc2)nn2c(-c3cn[nH]c3)cc(N3Cc4ccc(Cl)cc4C3)nc12 [Compound 119, 5-(5-chloroisoindolin-2-yl)-3-isopropyl-7-(1H-pyrazol-4-yl)-N-(4-((tetrahydro-2H-pyran-4-yl)oxy)phenyl)pyrazolo[1,5-a]pyrimidine-2-carboxamide]
1.21 | COc1cccc(NC(=O)c2nn3c(-c4cn[nH]c4)cc(N4Cc5cccc(Cl)c5C4)nc3c2C(C)C)c1 [Compound 126, 5-(4-chloroisoindolin-2-yl)-3-isopropyl-N-(3-methoxyphenyl)-7-(1H-pyrazol-4-yl)pyrazolo[1,5-a]pyrimidine-2-carboxamide]
2.83 | CC(C)Oc1ccc(NC(=O)c2cc3nc(N4Cc5ccccc5C4)cc(-c4cn[nH]c4)n3n2)cc1 [Compound 56, 5-(isoindolin-2-yl)-N-(4-isopropoxyphenyl)-7-(1H-pyrazol-4-yl)pyrazolo[1,5-a]pyrimidine-2-carboxamide]
1.9 | COc1cccc(NC(=O)c2nn3c(-c4cn[nH]c4)cc(N(C)Cc4ccccc4)nc3c2C)c1 [Compound 69, 5-(benzyl(methyl)amino)-N-(3-methoxyphenyl)-3-methyl-7-(1H-pyrazol-4-yl)pyrazolo[1,5-a]pyrimidine-2-carboxamide]
1.02 | C[C@@H](c1ccccc1)N(C)c1cc(-c2cn[nH]c2)n2nc(C(=O)Nc3cccc(O)c3)cc2n1 [Compound 15, (S)—N-(3-hydroxyphenyl)-5-(methyl(1-phenylethyl)amino)-7-(1H-pyrazol-4-yl)pyrazolo[1,5-a]pyrimidine-2-carboxamide]
2.36 | CC(C)c1c(C(=O)Nc2ccc(N3CCOCC3)cc2)nn2c(-c3cn[nH]c3)cc(N3Cc4ccc(Cl)cc4C3)nc12 [Compound 107, 5-(5-chloroisoindolin-2-yl)-3-isopropyl-N-(4-morpholinophenyl)-7-(1H-pyrazol-4-yl)pyrazolo[1,5-a]pyrimidine-2-carboxamide]
3.99 | CC(C)c1c(C(=O)Nc2cccc(N3CCOCC3)c2)nn2c(-c3cn[nH]c3)cc(N3Cc4ccc(F)cc4C3)nc12 [Compound 101, 5-(5-fluoroisoindolin-2-yl)-3-isopropyl-N-(3-morpholinophenyl)-7-(1H-pyrazol-4-yl)pyrazolo[1,5-a]pyrimidine-2-carboxamide]
3.68 | COc1cccc(NC(=O)c2cc3nc(N4Cc5ccc(Cl)cc5C4)cc(-c4cn[nH]c4)n3n2)c1 [Compound 61, 5-(5-chloroisoindolin-2-yl)-N-(3-methoxyphenyl)-7-(1H-pyrazol-4-yl)pyrazolo[1,5-a]pyrimidine-2-carboxamide]
6.21 | O=C(Nc1cccc(O)c1)c1nn2c(-c3cn[nH]c3)cc(N3Cc4ccccc4C3)nc2c1C1CC1 [Compound 94, 3-cyclopropyl-N-(3-hydroxyphenyl)-5-(isoindolin-2-yl)-7-(1H-pyrazol-4-yl)pyrazolo[1,5-a]pyrimidine-2-carboxamide]
8.46 | COc1cccc(CN(C)c2cc(-c3cn[nH]c3)n3nc(C(=O)Nc4ccc(Cl)cc4)cc3n2)c1 [Compound 39, N-(4-chlorophenyl)-5-((3-methoxybenzyl)(methyl)amino)-7-(1H-pyrazol-4-yl)pyrazolo[1,5-a]pyrimidine-2-carboxamide]
3.11 | COc1cccc(NC(=O)c2nn3c(-c4cn[nH]c4)cc(N4Cc5ccc(Cl)cc5C4)nc3c2C(C)(C)C)c1 [Compound 89, 3-(tert-butyl)-5-(5-chloroisoindolin-2-yl)-N-(3-methoxyphenyl)-7-(1H-pyrazol-4-yl)pyrazolo[1,5-a]pyrimidine-2-carboxamide]
4.36 | COc1ccc(CN(C)c2cc(-c3cn[nH]c3)n3nc(C(=O)Nc4ccc(Cl)cc4)cc3n2)cc1 [Compound 38, N-(4-chlorophenyl)-5-((4-methoxybenzyl)(methyl)amino)-7-(1H-pyrazol-4-yl)pyrazolo[1,5-a]pyrimidine-2-carboxamide]
3.71 | CN1CCN(c2cccc(NC(=O)c3cc4nc(N(C)Cc5ccccc5)cc(-c5cn[nH]c5)n4n3)c2)CC1 [Compound 22, 5-(benzyl(methyl)amino)-N-(3-(4-methylpiperazin-1-yl)phenyl)-7-(1H-pyrazol-4-yl)pyrazolo[1,5-a]pyrimidine-2-carboxamide]
11.6 | CC(C)c1c(C(=O)Nc2cccc(OC(F)(F)F)c2)nn2c(-c3cn[nH]c3)cc(N(C)Cc3ccccc3)nc12 [Compound 76, 5-(benzyl(methyl)amino)-3-isopropyl-7-(1H-pyrazol-4-yl)-N-(3-(trifluoromethoxy)phenyl)pyrazolo[1,5-a]pyrimidine-2-carboxamide]

IC50 [µM] | Structure (SMILES)
0.81 | CN(Cc1ccccc1)c1cc(-c2cn[nH]c2)n2nc(C(=O)Nc3ccc(O)cc3)cc2n1 [Compound 4, 5-(benzyl(methyl)amino)-N-(4-hydroxyphenyl)-7-(1H-pyrazol-4-yl)pyrazolo[1,5-a]pyrimidine-2-carboxamide]
1.65 | COc1ccc(NC(=O)c2cc3nc(N4Cc5ccccc5C4)cc(-c4cn[nH]c4)n3n2)cc1 [Compound 54, 5-(isoindolin-2-yl)-N-(4-methoxyphenyl)-7-(1H-pyrazol-4-yl)pyrazolo[1,5-a]pyrimidine-2-carboxamide]
7 | CN(Cc1ccccc1Cl)c1cc(-c2cn[nH]c2)n2nc(C(=O)Nc3ccc(Cl)cc3)cc2n1 [Compound 46, 5-((2-chlorobenzyl)(methyl)amino)-N-(4-chlorophenyl)-7-(1H-pyrazol-4-yl)pyrazolo[1,5-a]pyrimidine-2-carboxamide]
3.55 | COc1cc(NC(=O)c2cc3nc(N4Cc5ccccc5C4)cc(-c4cn[nH]c4)n3n2)cc(OC)c1 [Compound 51, N-(3,5-dimethoxyphenyl)-5-(isoindolin-2-yl)-7-(1H-pyrazol-4-yl)pyrazolo[1,5-a]pyrimidine-2-carboxamide]
1 | CC(=O)N1CCN(c2ccc(NC(=O)c3nn4c(-c5cn[nH]c5)cc(N5Cc6ccc(F)cc6C5)nc4c3C(C)C)cc2)CC1 [Compound 80, N-(4-(4-acetylpiperazin-1-yl)phenyl)-5-(5-fluoroisoindolin-2-yl)-3-isopropyl-7-(1H-pyrazol-4-yl)pyrazolo[1,5-a]pyrimidine-2-carboxamide]
1.27 | COCCOc1ccc(NC(=O)c2nn3c(-c4cn[nH]c4)cc(N4Cc5ccc(F)cc5C4)nc3c2C(C)C)cc1 [Compound 102, 5-(5-fluoroisoindolin-2-yl)-3-isopropyl-N-(4-(2-methoxyethoxy)phenyl)-7-(1H-pyrazol-4-yl)pyrazolo[1,5-a]pyrimidine-2-carboxamide]
9.07 | COc1cccc(NC(=O)c2nn3c(-c4cn[nH]c4)cc(N4Cc5ccc(F)cc5C4)nc3c2C(C)C)c1F [Compound 122, N-(2-fluoro-3-methoxyphenyl)-5-(5-fluoroisoindolin-2-yl)-3-isopropyl-7-(1H-pyrazol-4-yl)pyrazolo[1,5-a]pyrimidine-2-carboxamide]
5.68 | COc1cccc(NC(=O)c2nn3c(-c4cn[nH]c4)cc(N(C)Cc4ccccc4)nc3c2C(C)C)c1 [Compound 75, 5-(benzyl(methyl)amino)-3-isopropyl-N-(3-methoxyphenyl)-7-(1H-pyrazol-4-yl)pyrazolo[1,5-a]pyrimidine-2-carboxamide]
2.45 | COc1cccc(NC(=O)c2nn3c(-c4cn[nH]c4)cc(N4Cc5ccc(Cl)cc5C4)nc3c2C(C)C)c1 [Compound 81, 5-(5-chloroisoindolin-2-yl)-3-isopropyl-N-(3-methoxyphenyl)-7-(1H-pyrazol-4-yl)pyrazolo[1,5-a]pyrimidine-2-carboxamide]
1.99 | CCOc1cccc(NC(=O)c2cc3nc(N4Cc5ccccc5C4)cc(-c4cn[nH]c4)n3n2)c1 [Compound 27, N-(3-ethoxyphenyl)-5-(isoindolin-2-yl)-7-(1H-pyrazol-4-yl)pyrazolo[1,5-a]pyrimidine-2-carboxamide]
11.7 | CN(Cc1ccccc1)c1cc(-c2cn[nH]c2)n2nc(C(=O)Nc3cccnc3)cc2n1 [Compound 6, 5-(benzyl(methyl)amino)-7-(1H-pyrazol-4-yl)-N-(pyridin-3-yl)pyrazolo[1,5-a]pyrimidine-2-carboxamide]
4.38 | COc1cccc(NC(=O)c2cc3nc(N4Cc5ccccc5C4)cc(-c4c(C)nn(C)c4C)n3n2)c1 [Compound 59, 5-(isoindolin-2-yl)-N-(3-methoxyphenyl)-7-(1,3,5-trimethyl-1H-pyrazol-4-yl)pyrazolo[1,5-a]pyrimidine-2-carboxamide]
4.94 | COc1ccc(F)c(NC(=O)c2nn3c(-c4cn[nH]c4)cc(N4Cc5ccc(Cl)cc5C4)nc3c2C(C)C)c1 [Compound 120, 5-(5-chloroisoindolin-2-yl)-N-(2-fluoro-5-methoxyphenyl)-3-isopropyl-7-(1H-pyrazol-4-yl)pyrazolo[1,5-a]pyrimidine-2-carboxamide]
9.74 | O=C(Nc1cccc(OC(F)(F)F)c1)c1cc2nc(N3Cc4ccccc4C3)cc(-c3cn[nH]c3)n2n1 [Compound 26, 5-(isoindolin-2-yl)-7-(1H-pyrazol-4-yl)-N-(3-(trifluoromethoxy)phenyl)pyrazolo[1,5-a]pyrimidine-2-carboxamide]
2.77 | CN1CCN(c2cccc(NC(=O)c3cc4nc(N5Cc6ccccc6C5)cc(-c5cn[nH]c5)n4n3)c2)CC1 [Compound 48, 5-(isoindolin-2-yl)-N-(3-(4-methylpiperazin-1-yl)phenyl)-7-(1H-pyrazol-4-yl)pyrazolo[1,5-a]pyrimidine-2-carboxamide]
